Assay: Ex vivo permeation of cyclosporine through cornea, Ussing diffusion cells
Type: in vitro ADME, rabbit
Settings: excipient changed in or added to the Example 1 formulation
Procedure: In order to determine the permeation of cyclosporine (CsA) formulations into and through the cornea, ex vivo studies were conducted. In brief, the corneas from rabbits were taken and mounted onto Ussing diffusion cells incubated at 37° C. and perfused with carbogen (95/5 oxygen/[…]). Approximately 3 ml sample was placed in the donor side of the chamber, 3 ml Ringers solution (6.5 g NaCl, 0.42 g KCl, 0.25 g CaCl2 and […] of Sodium bicarbonate per litre; isotonic solution pH 7.2) was placed in the receptor side of the chamber.
Permeation across the cornea was determined by collecting 200 μl receptor phase at the appropriate time points. At time zero and at 8 hours (termination of the experiment) 100 μl of sample from the donor phase was taken for analysis. Corneas were collected and split into the stomal and epithelial parts. The cyclosporine in the cornea sections were analysed after extraction into 50/50 methanol/water. Levels of CsA in the receptor chamber, the cornea and in the donor chamber were determined by HPLC analysis. Formulations used were based on Example 1. The table below summarises the changes made to this formulation.

benzalkonium chloride
effect of excipient on permeation of CsA into and through the cornea: no significant effect

— patent publication US9610245B2, “Ophthalmic composition” (Drug Delivery Solutions Limited, priority 2011, dated 2017)
